Experimental data from PubChem BioAssay AID192 (DTP/NCI, 2004).
Values joined by “and” are separate entries in the source; they are usually repeats but may differ in a detail not shown here. Equal values may be shown once. Toxic doses and inconclusive results are not listed. Numbered stars: 1 amine (or outer) side, 2 acyl side, 3 side chain; on linkers, the order of the positions; unused ones are H or OH. Bridge positions count the residues as written; N and C are the ends. Square brackets hold non-standard residues; d marks the D form. Peptide text beside a SMILES is read from it. I, II: the chains in the order shown. Actinocin(9to1) = Cc1c2oc3c(C)ccc(C(=O)[*:1])c3nc-2c(C(=O)[*:2])c(N)c1=O; NMeV = CN[CH](C(=O)O)C(C)C; Pip = O=C(O)[CH]1CCCCN1; Sar = CNCC(=O)O

Tested on: BDF1 mice, B16 melanoma ip, median survival T/C
Test: NCI In Vivo Anticancer Drug Screen. Data for tumor model B16 Melanoma (intraperitoneal) in B6D2F1 (BDF1) mice
Settings: endpoint: median survival time, higher = longer survival
Procedure: The antitumor activity of compounds was measured in mice bearing transplantable tumors. Survival or tumor size were measured and the results are expressed as the measurement made in the treated group (T) divided by the measurement made in the vehicle treated control group (C). The tumor model used in this assay is B16 Melanoma (intraperitoneal) in B6D2F1 (BDF1) mice

[1] = dose: 6.25 mg/kg/injection, schedule: Q01DX009 (ip), vehicle: saline
[2] = dose: 12.5 mg/kg/injection, schedule: Q01DX009 (ip), vehicle: saline
[3] = dose: 25.0 mg/kg/injection, schedule: Q01DX009 (ip), vehicle: saline
[4] = dose: 50.0 mg/kg/injection, schedule: Q01DX009 (ip), vehicle: saline
[5] = dose: 50.0 mg/kg/injection, schedule: Q01DX009 (ip), vehicle: Klucel (hydroxypropylcellulose) (HPC)
[6] = dose: 100.0 mg/kg/injection, schedule: Q01DX009 (ip), vehicle: Klucel (hydroxypropylcellulose) (HPC)
[7] = dose: 100.0 mg/kg/injection, schedule: Q04DX003 (ip), vehicle: Klucel (hydroxypropylcellulose) (HPC)
[8] = dose: 200.0 mg/kg/injection, schedule: Q04DX003 (ip), vehicle: Klucel (hydroxypropylcellulose) (HPC)
[9] = dose: 100.0 mg/kg/injection, schedule: Q01DX009 (ip), vehicle: saline
[10] = dose: 200.0 mg/kg/injection, schedule: Q01DX009 (ip), vehicle: saline
[11] = dose: 200.0 mg/kg/injection, schedule: Q04DX003 (ip), vehicle: saline
[12] = dose: 400.0 mg/kg/injection, schedule: Q01DX009 (ip), vehicle: Klucel (hydroxypropylcellulose) (HPC)
[13] = dose: 12.5 mg/kg/injection, schedule: Q01DX009 (ip), vehicle: saline with Tween-80
[14] = dose: 25.0 mg/kg/injection, schedule: Q01DX009 (ip), vehicle: saline with Tween-80
[15] = dose: 50.0 mg/kg/injection, schedule: Q01DX009 (ip), vehicle: saline with Tween-80
[16] = dose: 100.0 mg/kg/injection, schedule: Q01DX009 (ip), vehicle: saline with Tween-80
[17] = dose: 200.0 mg/kg/injection, schedule: Q01DX009 (ip), vehicle: saline with Tween-80
[18] = dose: 400.0 mg/kg/injection, schedule: Q01DX009 (ip), vehicle: saline with Tween-80
[19] = dose: 3.13 mg/kg/injection, schedule: Q01DX009 (ip), vehicle: saline

## COC1CC(CC2CCC(C)C(C(C)C(=O)O)O2)OC2(OC(C)(C3CCC(C)(C4OC(C5OC(O)(CO)C(C)CC5C)CC4C)O3)CC2C)C1C (stereo unspecified)
dose: 0.31 mg/kg/injection, schedule: Q01DX009 (ip), vehicle: Klucel (hydroxypropylcellulose) (HPC)
  T/C: 102 % of control
dose: 0.63 mg/kg/injection, schedule: Q01DX009 (ip), vehicle: Klucel (hydroxypropylcellulose) (HPC)
  T/C: 89 % of control
dose: 1.25 mg/kg/injection, schedule: Q01DX009 (ip), vehicle: Klucel (hydroxypropylcellulose) (HPC)
  T/C: 92 % of control
dose: 2.5 mg/kg/injection, schedule: Q01DX009 (ip), vehicle: Klucel (hydroxypropylcellulose) (HPC)
  T/C: 92 % of control

## COCCNCCOC
dose: 160.0 mg/kg/injection, schedule: Q01DX009 (ip), vehicle: saline
  T/C: 118 % of control
dose: 370.0 mg/kg/injection, schedule: Q01DX009 (ip), vehicle: saline
  T/C: 121 % of control

## CCC(NC(=O)OC(C)(C)C)C(=O)O (stereo unspecified)
[1]
  T/C: 100 % of control
[2]
  T/C: 95 % of control
[3]
  T/C: 95 % of control
[4]
  T/C: 88 % of control and 96 % of control

## Cc1cc(=O)n(C)c2ccccc12
dose: 12.5 mg/kg/injection, schedule: Q01DX009 (ip), vehicle: Klucel (hydroxypropylcellulose) (HPC)
  T/C: 90 % of control
dose: 25.0 mg/kg/injection, schedule: Q01DX009 (ip), vehicle: Klucel (hydroxypropylcellulose) (HPC)
  T/C: 90 % of control
[5]
  T/C: 90 % of control
dose: 50.0 mg/kg/injection, schedule: Q04DX003 (ip), vehicle: Klucel (hydroxypropylcellulose) (HPC)
  T/C: 107 % of control
[6]
  T/C: 90 % of control
[7]
  T/C: 102 % of control
[8]
  T/C: 102 % of control

## O=[N+]([O-])c1cccc(P(=O)(c2cccc([N+](=O)[O-])c2)c2cccc([N+](=O)[O-])c2)c1
[9]
  T/C: 105 % of control
dose: 100.0 mg/kg/injection, schedule: Q04DX003 (ip), vehicle: saline
  T/C: 94 % of control
[10]
  T/C: 100 % of control
[11]
  T/C: 100 % of control
dose: 400.0 mg/kg/injection, schedule: Q01DX009 (ip), vehicle: saline
  T/C: 107 % of control
dose: 400.0 mg/kg/injection, schedule: Q04DX003 (ip), vehicle: saline
  T/C: 100 % of control

## O=C(NC(CS)C(=O)O)OCc1ccccc1 (stereo unspecified)
[5]
  T/C: 94 % of control
[6]
  T/C: 94 % of control

## C=Cc1cc(OC)c2c(c1)c(=O)oc1c2cc(OC)c2c(O)ccc(C3OC(C(C)O)C(O)C3O)c21 (stereo unspecified)
[6]
  T/C: 159 % of control
[12]
  T/C: 113 % of control

## COc1cc(C(=O)Nc2ccc(N(C)C)cc2)cc(OC)c1OC
dose: 12.5 mg/kg/injection, schedule: Q04DX003 (ip), vehicle: saline
  T/C: 119 % of control
dose: 50.0 mg/kg/injection, schedule: Q04DX003 (ip), vehicle: saline
  T/C: 116 % of control
[11]
  T/C: 108 % of control

## Clc1nnc(Nc2ccccc2)c2ccccc12
[6]
  T/C: 92 % of control
dose: 200.0 mg/kg/injection, schedule: Q01DX009 (ip), vehicle: Klucel (hydroxypropylcellulose) (HPC)
  T/C: 97 % of control
[12]
  T/C: 86 % of control

## CC1=C(/C=C/C(C)=C/C=C/C(C)=C/CO)C(C)(C)CCC1
dose: 4.0 mg/kg/injection, schedule: Q01DX009 (ip), vehicle: saline with Tween-80
  T/C: 90 % of control and 100 % of control
dose: 8.0 mg/kg/injection, schedule: Q01DX009 (ip), vehicle: saline with Tween-80
  T/C: 99 % of control and 101 % of control
dose: 16.0 mg/kg/injection, schedule: Q01DX009 (ip), vehicle: saline with Tween-80
  T/C: 97 % of control and 103 % of control
dose: 32.0 mg/kg/injection, schedule: Q01DX009 (ip), vehicle: saline with Tween-80
  T/C: 90 % of control and 105 % of control

## CC(C)NNC(=O)C(N)CO (stereo unspecified)
[3]
  T/C: 104 % of control
[4]
  T/C: 116 % of control
[9]
  T/C: 104 % of control
[10]
  T/C: 111 % of control

## O=C1NC(=O)/C(=C/C=C/c2ccccc2)S1
[13]
  T/C: 99 % of control and 114 % of control
[14]
  T/C: 97 % of control and 115 % of control
[15]
  T/C: 99 % of control and 103 % of control
[16]
  T/C: 99 % of control and 108 % of control
[17]
  T/C: 114 % of control
[18]
  T/C: 98 % of control

## Oc1cccnc1CN1CCOCC1
[16]
  T/C: 106 % of control
[17]
  T/C: 109 % of control
[18]
  T/C: 100 % of control

## CCCCCCCCCCCCCCCCCC(=O)OCC(=O)OCC(=O)[C@]1(O)Cc2c(O)c3c(c(O)c2[C@@H](OC2CC(N)C(O)C(C)O2)C1)C(=O)c1c(OC)cccc1C3=O (stereo partly specified)
dose: 3.75 mg/kg/injection, schedule: Q01DX001 (ip), vehicle: water
  T/C: 236 % of control
dose: 7.5 mg/kg/injection, schedule: Q01DX001 (ip), vehicle: water
  T/C: 287 % of control and 289 % of control
dose: 15.0 mg/kg/injection, schedule: Q01DX001 (ip), vehicle: water
  T/C: 289 % of control
dose: 30.0 mg/kg/injection, schedule: Q01DX001 (ip), vehicle: water
  T/C: 154 % of control and 289 % of control (2×)

## C[n+]1c(/C=C/c2ccc(O)c3ncccc23)[se]c2ccccc21
dose: 0.38 mg/kg/injection, schedule: Q01DX009 (ip), vehicle: saline
  T/C: 102 % of control
dose: 0.75 mg/kg/injection, schedule: Q01DX009 (ip), vehicle: saline
  T/C: 109 % of control
dose: 1.5 mg/kg/injection, schedule: Q01DX009 (ip), vehicle: saline
  T/C: 106 % of control
dose: 3.0 mg/kg/injection, schedule: Q01DX009 (ip), vehicle: saline
  T/C: 109 % of control and 115 % of control
dose: 6.0 mg/kg/injection, schedule: Q01DX009 (ip), vehicle: saline
  T/C: 106 % of control and 124 % of control
dose: 12.0 mg/kg/injection, schedule: Q01DX009 (ip), vehicle: saline
  T/C: 115 % of control
dose: 24.0 mg/kg/injection, schedule: Q01DX009 (ip), vehicle: saline
  T/C: 122 % of control

## CCCC1CCC(=C2C(=O)CCC2=O)O1 (stereo unspecified)
[19]
  T/C: 102 % of control
[1]
  T/C: 100 % of control
[2]
  T/C: 91 % of control
[3]
  T/C: 89 % of control

## CC[CH2][Pb]([CH2]CC)([CH2]CC)[O]C(=O)C(Cl)(Cl)Cl
dose: 2.0 mg/kg/injection, schedule: Q01DX009 (ip), vehicle: Klucel (hydroxypropylcellulose) (HPC)
  T/C: 120 % of control
dose: 4.0 mg/kg/injection, schedule: Q01DX009 (ip), vehicle: Klucel (hydroxypropylcellulose) (HPC)
  T/C: 112 % of control

## Cc1c2oc3c(C)ccc(C(=O)NC4C(=O)NC(C(C)C)C(=O)N5CCCCC5C(=O)N(C)CC(=O)N(C)C(C(C)C)C(=O)OC4C)c3nc-2c(C(=O)NC2C(=O)NC(C(C)C)C(=O)N3CCCCC3C(=O)N(C)CC(=O)N(C)C(C(C)C)C(=O)OC2C)c(N)c1=O (stereo unspecified) (I: TV[Pip][Sar][NMeV] / II: TV[Pip][Sar][NMeV]; ester I:1-I:C, II:1-II:C; linker I:N-II:N via Actinocin(9to1); configuration not given here)
dose: 0.25 mg/kg/injection, schedule: Q01DX009 (ip), vehicle: saline + alcohol
  T/C: 120 % of control
dose: 0.5 mg/kg/injection, schedule: Q01DX009 (ip), vehicle: saline + alcohol
  T/C: 123 % of control
dose: 0.75 mg/kg/injection, schedule: Q04DX003 (ip), vehicle: saline + alcohol
  T/C: 99 % of control and 116 % of control
dose: 1.5 mg/kg/injection, schedule: Q04DX003 (ip), vehicle: saline + alcohol
  T/C: 111 % of control and 116 % of control
dose: 2.0 mg/kg/injection, schedule: Q01DX009 (ip), vehicle: saline + alcohol
  T/C: 157 % of control
dose: 6.0 mg/kg/injection, schedule: Q04DX003 (ip), vehicle: saline + alcohol
  T/C: 155 % of control

## CC[N](CC)[Ge]([CH2]C)[CH2]C.CC[N](CC)[Ge]([CH2]C)[CH2]C
[1]
  T/C: 100 % of control
[2]
  T/C: 99 % of control
[3]
  T/C: 88 % of control
[4]
  T/C: 86 % of control

## CCCCN(C)N=Nc1ccc(CCCC(=O)OCC)cc1
dose: 1.56 mg/kg/injection, schedule: Q01DX009 (ip), vehicle: saline
  T/C: 97 % of control
[19]
  T/C: 100 % of control
[1]
  T/C: 100 % of control

## CCCCC(CC)C1OC(=O)C(C)O1 (stereo unspecified)
[7]
  T/C: 98 % of control
[8]
  T/C: 100 % of control

## Nc1nc(=S)c2n[nH]nc2[nH]1
[13]
  T/C: 96 % of control
[14]
  T/C: 108 % of control
[15]
  T/C: 113 % of control
[16]
  T/C: 88 % of control
